Source: PubChem BioAssay (NCI)
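Dose response: 5 concentrations. Exposure: 48 h. Format: 96-well plates. Endpoint: linear interpolation; highest concentration if not reached. Abbreviation: GI50, concentration required for 50% inhibition of growth. Definition used: TGI = concentration required for complete inhibition of growth.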

Key:
Assay in all cases: DTP human tumour cell line panel, 48 h
[1] = system: DMS 273 small cell lung
[2] = system: HCC-2998 colon
[3] = system: HOP-92 NSCLC
[4] = system: M14 melanoma
[5] = system: NCI-H226 lung
[6] = system: OVCAR-3 ovarian
[7] = system: SNB-78 CNS
[8] = system: HS 578T breast
[9] = system: MDA-MB-435
[10] = system: SK-OV-3 ovarian
[11] = system: M19-MEL melanoma
[12] = system: XF 498 CNS

SMILES	TGI [1]	TGI [2]	TGI [3]	TGI [4]	TGI [5]	TGI [6]	TGI [7]	TGI [8]	TGI [9]	TGI [10]	TGI [11]	TGI [12]	GI50 [2]	GI50 [3]	GI50 [8]	GI50 [9]	GI50 [5]	GI50 [6]	GI50 [10]
NC(=O)/N=C/c1c(O)c2ccccc2oc1=O	> 100 µM	> 100 µM	> 100 µM	> 100 µM	> 100 µM	> 100 µM	> 100 µM	–	–	–	–	–	–	–	–	–	–	–	–
C/C(=N\NC(N)=S)c1nc2ncccc2[nH]1	–	> 100 µM	> 100 µM	> 100 µM	> 91.4 µM	> 100 µM	–	> 100 µM	> 100 µM	> 100 µM	–	–	–	–	–	–	–	–	–
COC(=O)c1c(O)ccc2c1c1c(n2Cc2cccc(C)c2)C(=O)c2ccccc2C1	–	–	> 75 µM	47.1 µM	> 75 µM	> 75 µM	–	> 75 µM	42.7 µM	> 75 µM	–	–	–	–	–	–	–	–	–
COC(=O)C12Oc3ccc(-c4ccc5c(c4O)C(O)=C4C(=O)CC(C)C(O)C4(C(=O)OC)O5)c(O)c3C(O)=C1C(=O)CC(C)C2O (stereo unspecified)	–	–	> 22.7 µM	0.89 µM	4.36 µM	–	–	3.86 µM	1.96 µM	> 82.1 µM	–	–	–	–	–	–	–	–	–
COc1cc(O)c(Cc2ccccc2O)c(O)c1C(=O)CCc1ccccc1	13.1 µM	19.8 µM	10.8 µM	–	32 µM	16.1 µM	31.4 µM	–	–	18.2 µM	20.5 µM	7.76 µM	–	–	–	–	–	–	–
COc1ccc2c3/c(=C\c4ccc(N(C)C)cc4)c4ccccc4n3[n+](C)c2c1	–	0.31 µM	1.78 µM	–	1.68 µM	0.369 µM	–	–	1.83 µM	2.57 µM	–	–	< 0.0378 µM	0.236 µM	0.162 µM	0.484 µM	0.244 µM	0.0358 µM	1.04 µM
O=C1C(=C([O-])c2ccccc2)C(=O)c2ccccc21.O=C1C(=C([O-])c2ccccc2)C(=O)c2ccccc21.[Ni+2]	–	> 100 µM	–	–	63.5 µM	–	–	–	–	98.4 µM	–	–	58.9 µM	–	–	–	4.68 µM	–	23.1 µM
